Source: publication PMC10584170, “Machine learning-based phenotypic imaging to characterise the targetable biology of Plasmodium falciparum male gametocytes for the development of transmission-blocking antimalarials” (PLOS Pathogens, 2023)
Like-named read-outs stand apart in the source and are kept apart here.

Columns and labels:
[1] = system: P. falciparum male gametocytes; experiment: P. falciparum Dual Gamete Formation Assay (PfDGFA), male readout (exflagellation); type: cell-based, Plasmodium falciparum NF54; conditions: for Selectivity Ratio M: HepG2 Tox50 versus male IC50; for IC50: read-out: Male IC50
How it was run: (§1)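 Read-outs are automated image counts of exflagellation centres (brightfield, 10 frames over 1 s) and Pfs25-positive female gametes (Cy3 fluorescence).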

[2] = system: P. falciparum female gametocytes; experiment: P. falciparum Dual Gamete Formation Assay (PfDGFA), female readout (Pfs25-positive female gametes); type: cell-based, Plasmodium falciparum NF54; conditions: for Selectivity ratio F: HepG2 Tox50 versus female IC50; for IC50: read-out: Female IC50
How it was run: as §1

HepG2 cells = experiment: HepG2 cytotoxicity counter-screen; conditions: cytotoxic activity against HepG2 cells
[3] = 2µM, 24h preincubation with gametocytes, average of replicates
[4] = 2µM, 24h preincubation with gametocytes, replicate R1
[5] = 2µM, 24h preincubation with gametocytes, replicate R3
[6] = 2µM, 24h preincubation with gametocytes, replicate R4
[7] = PfDGFA, 24 h incubation with gametocytes before induction, exflagellation readout
[8] = PfDGFA, 24 h incubation with gametocytes before induction, female gamete readout
[9] = Plasmodium falciparum, read-out: % inhibition male (individual replicates) R1
[10] = Plasmodium falciparum, read-out: % inhibition male (individual replicates) R2
[11] = Plasmodium falciparum, read-out: % inhibition male (individual replicates) R4
[12] = Plasmodium falciparum, read-out: Average inhibition male (%)
[13] = Plasmodium falciparum, read-out: % inhibition female (individual replicates) R1
[14] = Plasmodium falciparum, read-out: % inhibition female (individual replicates) R2
[15] = Plasmodium falciparum, read-out: % inhibition female (individual replicates) R3
[16] = Plasmodium falciparum, read-out: % inhibition female (individual replicates) R4
[17] = Plasmodium falciparum, read-out: Average inhibition female (%)
[18] = PfDGFA at 2µM, 24h preincubation with gametocytes, average of replicates
[19] = PfDGFA at 2µM, 24h preincubation with gametocytes, replicate R1
[20] = PfDGFA at 2µM, 24h preincubation with gametocytes, replicate R3
[21] = PfDGFA at 2µM, 24h preincubation with gametocytes, replicate R4

Row | SMILES | Average inhibition male (%) [1, 3] | % inhibition male (individual replicates) R1 [1, 4] | % inhibition male (individual replicates) R3 [1, 5] | % inhibition male (individual replicates) R4 [1, 6] | Selectivity Ratio M [1] | IC50 [1, 7] | Average inhibition female (%) [2, 3] | % inhibition female (individual replicates) R1 [2, 4] | % inhibition female (individual replicates) R3 [2, 5] | % inhibition female (individual replicates) R4 [2, 6] | Selectivity ratio F [2] | IC50 [2, 8] | Tox50 (HepG2 cells) | also measured
1 | CCCCCCC(N)c1ccc(OCCCOc2ccc(C(N)CCCCCC)cc2)cc1.Cl (stereo not shown) [TCMDC-137621] | 94.3% | 98.4% | 82.0% | 99.6% | 3.34 | 1070 nM | 47.1% | 37.5% | 53.9% | 41.4% | 2.08 | 1710 nM | 3.56 µM | 
2 | CC(CO)(CO)NCc1cc2c3ccccc3c(CNC(C)(CO)CO)cc2c2ccccc12.CS(=O)(=O)O [TCMDC-137752] |  |  |  |  | 14.99 |  |  |  |  |  | 2.72 |  | 13.04 µM | IC50 ([1]; Plasmodium falciparum, 24 h): 870 nM; inhibition at 2 µM [1, 9]: 93.1%; inhibition at 2 µM [1, 10]: 93.5%; inhibition at 2 µM ([1]; Plasmodium falciparum, read-out: % inhibition male (individual replicates) R3): 85.5%; inhibition at 2 µM [1, 11]: 90.9%; inhibition at 2 µM [1, 12]: 90.8%; IC50 ([2]; Plasmodium falciparum, 24 h): 4790 nM; inhibition at 2 µM [2, 13]: 37.9%; inhibition at 2 µM [2, 14]: 48.4%; inhibition at 2 µM [2, 15]: 18.2%; inhibition at 2 µM [2, 16]: 48.2%; inhibition at 2 µM [2, 17]: 38.2%
3 | CCOc1c(CCNCCCCNCCc2ccc3ccccc3c2OCC)ccc2ccccc12.CS(=O)(=O)O [TCMDC-137759] | 92.2% | 95.9% | 97.8% | 100.2% | 2.62 | 1310 nM | 82.4% | 86.3% | 88.2% | 86.8% | 1.48 | 2330 nM | 3.44 µM | 
4 | CS(=O)(=O)O.CSc1ccc2ccccc2c1CCNCCCCNCCc1c(SC)ccc2ccccc12 [TCMDC-137763] | 90.7% | 94.6% | 73.0% | 98.9% | 2.67 | 1400 nM | 55.5% | 47.6% | 28.5% | 71.9% | 1.79 | 2080 nM | 3.73 µM | 
5 | CCC1=C[C@@H]2CN(C1)Cc1c([nH]c3ccccc13)[C@@](C(=O)OC)(c1cc3c(cc1OC)N(C)[C@H]1[C@@](O)(C(=O)OC)[C@H](O)[C@]4(CC)C=CCN5CC[C@]31[C@@H]54)C2.O=S(=O)(O)O [TCMDC-137769] |  |  |  |  | 5697.96 |  |  |  |  |  | 5.57 |  | 55.68 µM | IC50 ([1]; Plasmodium falciparum, 24 h): 10 nM; inhibition at 2 µM [1, 9]: 101%; inhibition at 2 µM [1, 10]: 99.3%; inhibition at 2 µM [1, 11]: 103%; inhibition at 2 µM [1, 12]: 101%; IC50 ([2]; Plasmodium falciparum, 24 h): > 10000 nM; inhibition at 2 µM [2, 13]: 4.8%; inhibition at 2 µM [2, 14]: -7.3%; inhibition at 2 µM [2, 15]: 2.7%; inhibition at 2 µM [2, 16]: 9.5%; inhibition at 2 µM [2, 17]: 2.4%
6 | CC(=NNC(=S)NC(C)(C)C)c1ccccn1 [TCMDC-137783] | 101.1% | 99.9% | 98.6% | 104.2% | 0.9 | 110 nM | 58.4% | 41.7% | 38.4% | 72.1% | 0.11 | 970 nM | 0.1 µM | 
7 | COc1ccc2ccc(OC)c(CNCCCCCCNCc3c(OC)ccc4ccc(OC)cc34)c2c1.CS(=O)(=O)O [TCMDC-137796] | 93.5% | 89.3% | 82.0% | 102.2% | 2.84 | 1430 nM | 38.4% | 29.7% | 9.8% | 40.9% | 1.12 | 3650 nM | 4.07 µM | 
8 | Br.c1cc(C2=NC3CCCCC3N2)ccc1OCCCOc1ccc(C2=NC3CCCCC3N2)cc1 (stereo not shown) [TCMDC-137803] |  |  |  |  | 32.57 |  |  |  |  |  | 3.68 |  | 36.78 µM | inhibition at 2 µM ([1]; Plasmodium falciparum, 2µM, 24h preincubation with gametocytes, average of replicates, read-out: Average inhibition male (%)): 96.1%; inhibition at 2 µM ([1]; Plasmodium falciparum, 2µM, 24h preincubation with gametocytes, replicate R1, read-out: % inhibition male (individual replicates) R1): 93.1%; inhibition at 2 µM ([1]; Plasmodium falciparum, 2µM, 24h preincubation with gametocytes, replicate R2, read-out: % inhibition male (individual replicates) R2): 96.3%; inhibition at 2 µM ([1]; Plasmodium falciparum, 2µM, 24h preincubation with gametocytes, replicate R3, read-out: % inhibition male (individual replicates) R3): 92.1%; inhibition at 2 µM ([1]; Plasmodium falciparum, 2µM, 24h preincubation with gametocytes, replicate R4, read-out: % inhibition male (individual replicates) R4): 103%; IC50 ([1]; Plasmodium falciparum, PfDGFA, 24 h incubation with gametocytes before induction, exflagellation readout): 1130 nM; inhibition at 2 µM ([2]; Plasmodium falciparum, 2µM, 24h preincubation with gametocytes, average of replicates, read-out: Average inhibition female (%)): 39.4%; inhibition at 2 µM ([2]; Plasmodium falciparum, 2µM, 24h preincubation with gametocytes, replicate R1, read-out: % inhibition female (individual replicates) R1): 33.6%; inhibition at 2 µM ([2]; Plasmodium falciparum, 2µM, 24h preincubation with gametocytes, replicate R2, read-out: % inhibition female (individual replicates) R2): 49.2%; inhibition at 2 µM ([2]; Plasmodium falciparum, 2µM, 24h preincubation with gametocytes, replicate R3, read-out: % inhibition female (individual replicates) R3): 5.9%; inhibition at 2 µM ([2]; Plasmodium falciparum, 2µM, 24h preincubation with gametocytes, replicate R4, read-out: % inhibition female (individual replicates) R4): 68.9%; IC50 ([2]; Plasmodium falciparum, PfDGFA, 24 h incubation with gametocytes before induction, female gamete readout): > 10000 nM
9 | Nc1nc(N)c2c(ccc3c2ccn3Cc2ccc3c(c2)OCO3)n1 [TCMDC-137808] |  |  |  |  | 0.19 | 760 nM |  |  |  |  | 0.18 | 840 nM | 0.15 µM | Average inhibition male (%) [1, 18]: 70.0%; % inhibition male (individual replicates) R1 [1, 19]: 66.3%; % inhibition male (individual replicates) R3 [1, 20]: 77.8%; % inhibition male (individual replicates) R4 [1, 21]: 76.3%; HitlevelM ([1]; number of replicates with >50% inhibition in the male readout, 2µM): 4; Average inhibition female (%) [2, 18]: 83.7%; % inhibition female (individual replicates) R1 [2, 19]: 77.5%; % inhibition female (individual replicates) R3 [2, 20]: 80.4%; % inhibition female (individual replicates) R4 [2, 21]: 88.7%; HitlevelF ([2]; number of replicates with >50% inhibition in the female readout, 2µM): 4
